According to patent publication US10836727B2, “Crystal forms of lenvatinib” (Indena S.P.A., priority 2016, dated 2020):

Columns and labels:
[1] = DVS analysis (percentage change in mass as function of relative humidity change); type: physicochemical; details: for sorption and desorption of water (reversibility): methanesulfonate
Description: DVS analysis, shown in FIG. 11, reports the percentage change in mass as of the relative humidity change.
The DVS analysis, shown in FIG. 22, reports the percentage change in mass as function of the relative humidity change.

[2] = XRPD of the sample recovered at the end of DVS analysis; type: physicochemical; details: methanesulfonate
Method: The X-ray powder diffractogram (XRPD) has been obtained using the instrument X′Pert PRO PANalytical with single scan, using Kα1 radiation. The diffractogram is measured in reflection mode in the range 3-40° 2θ.

COc1cc2nccc(Oc3ccc(NC(=O)NC4CC4)c(Cl)c3)c2cc1C(N)=O [ACA-1 HT DRY, 4-[3-Chloro-4-(N′-cyclopropylureido)phenoxy]-7-methoxyquinoline-6-carboxamide methanesulfonate]
sorption and desorption of water (reversibility) ([1]; DVS analysis): not very reversible | diffractogram / crystal structure after DVS [2]: quite amorphous but its crystal structure did not change

COc1cc2nccc(Oc3ccc(NC(=O)NC4CC4)c(Cl)c3)c2cc1C(N)=O [DMSO-2, 4-[3-Chloro-4-(N′-cyclopropylureido)phenoxy]-7-methoxyquinoline-6-carboxamide methanesulfonate]
weight loss of the sample between the start and the end of analysis ([1]; DVS analysis, compatible with the loss of 1 mol of DMSO): 12.34% | sorption and desorption of water (reversibility) ([1]; DVS analysis): not reversible

COc1cc2nccc(Oc3ccc(NC(=O)NC4CC4)c(Cl)c3)c2cc1C(N)=O [H2O-1, 4-[3-Chloro-4-(N′-cyclopropylureido)phenoxy]-7-methoxyquinoline-6-carboxamide methanesulfonate]
sorption and desorption of water (reversibility) ([1]; DVS analysis): reversible | mass increased percentage ([1]; DVS, between 40% and 80% RH of the absorption cycle): 10.9% | hygroscopicity classification ([1]; from DVS mass increase between 40% and 80% RH): hygroscopic | diffractogram / crystal structure after DVS [2]: did not show any important modification
